According to US7371874B2, “6-Alkylamino-2-methyl-2′-(N-methyl substituted sulfonamido)methyl-2H-1-benzopyran derivative as anti-inflammatory inhibitor” (Korea Research Institute of Chemical Technology, priority 2005, dated 2008):

What was measured:
[1] = biological target: T1, 5-LO (Homo sapiens, UniProt P09917); test: 5-Lipoxygenase enzyme assay, bioassay using FOX reagent; format: biochemical; settings: test compound 1 μM; lysate from 5-LO expressed insect cells; arachidonic acid 40 μM
T1 construct: made in house; host or cells: insect cells (crude lysate)
T1 sequence (P09917 1-674): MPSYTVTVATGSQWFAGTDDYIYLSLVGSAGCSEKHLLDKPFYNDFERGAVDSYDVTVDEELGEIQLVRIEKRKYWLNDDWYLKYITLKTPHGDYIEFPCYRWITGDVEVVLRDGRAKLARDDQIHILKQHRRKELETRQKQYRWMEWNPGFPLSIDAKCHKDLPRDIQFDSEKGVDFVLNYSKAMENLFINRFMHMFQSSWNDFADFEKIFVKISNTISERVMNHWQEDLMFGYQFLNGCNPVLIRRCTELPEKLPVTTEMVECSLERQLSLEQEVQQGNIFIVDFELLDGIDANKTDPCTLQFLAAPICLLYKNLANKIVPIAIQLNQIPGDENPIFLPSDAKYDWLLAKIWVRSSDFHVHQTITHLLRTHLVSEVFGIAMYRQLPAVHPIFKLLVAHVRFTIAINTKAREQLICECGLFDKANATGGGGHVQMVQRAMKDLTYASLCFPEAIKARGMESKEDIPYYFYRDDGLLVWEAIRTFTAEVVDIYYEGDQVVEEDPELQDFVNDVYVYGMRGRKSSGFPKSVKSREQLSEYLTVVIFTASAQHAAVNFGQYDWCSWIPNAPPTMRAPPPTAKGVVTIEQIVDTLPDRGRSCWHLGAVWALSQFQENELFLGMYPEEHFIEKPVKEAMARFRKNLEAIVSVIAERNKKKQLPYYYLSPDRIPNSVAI
Protocol: 1. 5-Lipoxygenase enzyme assay
1) Bioassay Using FOX Reagent
Each test compound (final concentration=1 μM) was added to a lysate (7 μg) obtained from 5-LO expressed insect cells and reaction was performed at room temperature for 3 minutes. Then, arachidonic acid (40 μM) was added as enzyme substrate and reaction was further performed at room temperature for 4 minutes. 100 μL of a FOX reagent (sulfuric acid 25 mM, xylenol orange 100 μM, FeSO4 100 μM, methanol/water=9:1) was added thereto and then, after 5 minutes, absorbance was measured at 575 nm.

[2] = test system: Mouse ear edema; test: In vivo bioassay (mouse ear edema model, arachidonic acid); set-up: species or system ICR mouse; settings: oral in 0.5% methylcellulose 1 hour before arachidonic acid, compared with control; for Mouse ear edema model (in vivo assay): Thickness: ear thickness after 1 hour; for Mouse ear edema model (in vivo assay): MPO: myeloperoxidase activity of ear tissue
Protocol: 3. In Vivo Bioassay (Mouse Ear Edema Model)
The inside of the right ear of an ICR mouse (6 weeks old) was treated with 2 mg of arachidonic acid dissolved in 20 μL of acetone for 1 hour to induce an inflammation.
After 1 hour, the difference of thickness T (%) between the arachidonic acid-treated right ear and the non-treated left ear was measured with a microgauge.
Further, myeloperoxidase (MPO) activity was measured in order to measure the amount of neutrophil penetrated into the tissue as a primary marker for induced inflammation. The tissue obtained from the arachidonic acid-treated right ear was homogenized in a 50 mM phosphate buffer solution (pH 6.0) containing 0.5% hexadecyltrimethylammonium bromide (HTAB), centrifuged and then the MPO activity (MPO %) of the supernatant was measured.
To measure in vivo activity of each test compound, each compound was dissolved in 0.5% methylcellulose (10 mL/kg) and orally administered to a mouse 1 hour before treatment with arachidonic acid. Then, arachidonic acid was treated for 1 hour and the thickness of ear and MPO activity were measured. In vivo activity of each test compound was estimated by comparing the test result with that of a control which was treated only with arachidonic acid, without the test compound.

[3] = test system: LTB4 in Rat basophilic leukemia (RBL-1) cells; test: LTB4 cell-based assay (RBL-1 cells, A23187, ELISA); settings: A23187 10 μM, LTB4 by ELISA
Protocol: Rat basophilic leukemia (RBL-1) cells were inoculated at a 24-well plate to a final concentration of 7.5×10^5 cells/well and incubated for 2 hours, so that they adhered to the bottom of the plate. […] The well plate was centrifuged at 1,500 g for 20 minutes to isolate the supernatant and then the amount of LTB4 of the supernatant was measured with ELISA analysis.

Compound | 5-LO enzyme assay (% inhibition, at 1 μM) [1] [%] | Mouse ear edema model (in vivo assay): Thickness [2] | Mouse ear edema model (in vivo assay): MPO [2] | Cell-based assay (% inhibition, at 1 μM) [3] [%] | inhibition at 1 µM [1] [%]
COc1ccc(CNc2ccc3c(c2)C=CC(C)(CN(C)S(=O)(=O)c2ccccc2)O3)cc1 (centres unmarked) [1-1-1] | 86 | Thickness 62% | MPO 34% | 82 | 
CN(CC1(C)C=Cc2cc(NCc3ccc(C#N)cc3)ccc2O1)S(=O)(=O)c1ccccc1 (centres unmarked) [1-1-7] | 80 |  |  | 71 | 
CN(CC1(C)C=Cc2cc(NCc3ccc(F)cc3)ccc2O1)S(=O)(=O)c1ccccc1 (centres unmarked) [1-1-10] | 87 | Thickness 60% | MPO 27% | 81 | 
CN(CC1(C)C=Cc2cc(NCc3cccc(F)c3)ccc2O1)S(=O)(=O)c1ccccc1 (centres unmarked) [1-1-11] | 73 |  |  | 58 | 
CN(CC1(C)C=Cc2cc(NCc3ccsc3)ccc2O1)S(=O)(=O)c1ccccc1 (centres unmarked) [1-1-24] |  |  |  |  | 44
COc1ccc(S(=O)(=O)N(C)CC2(C)C=Cc3cc(NCc4ccc(C)s4)ccc3O2)cc1 (centres unmarked) [1-1-40] | 45 |  |  | 38 | 
COc1ccc(S(=O)(=O)N(C)CC2(C)C=Cc3cc(NCc4ccsc4)ccc3O2)cc1 (centres unmarked) [1-1-51] | 48 |  |  | 36 | 
CCOC(OCC)c1ccc(CNc2ccc3c(c2)C=CC(C)(CN(C)S(=O)(=O)c2ccc(C)cc2)O3)cc1 (centres unmarked) [1-1-103] | 63 |  |  | 52 | 
CN(CC1(C)C=Cc2cc(NCc3ccsc3)ccc2O1)S(=O)(=O)c1ccc(C(C)(C)C)cc1 (centres unmarked) [1-1-132] | 47 |  |  | 35 | 
COc1ccc(CNc2ccc3c(c2)C=CC(C)(CN(C)S(=O)(=O)Cc2ccccc2)O3)cc1 (centres unmarked) [1-1-163] | 61 |  |  | 43 | 
CN(CC1(C)C=Cc2cc(NCc3ccncc3)ccc2O1)S(=O)(=O)Cc1ccccc1 (centres unmarked) [1-1-183] |  |  |  |  | 45
COc1ccc(CNc2ccc3c(c2)C=CC(C)(CN(C)S(=O)(=O)c2ccc(Cl)cc2)O3)cc1 (centres unmarked) [1-1-217] | 70 |  |  | 56 | 
COc1ccc(CNc2ccc3c(c2)C=CC(C)(CN(C)S(=O)(=O)c2ccc(F)cc2)O3)cc1 (centres unmarked) [1-1-244] | 67 |  |  | 41 | 
Cc1ccc(CNc2ccc3c(c2)C=CC(C)(CN(C)S(=O)(=O)c2ccc(F)cc2)O3)s1 (centres unmarked) [1-1-256] | 79 |  |  | 63 | 
CCCS(=O)(=O)N(C)CC1(C)C=Cc2cc(NCc3ccc(OC)cc3)ccc2O1 (centres unmarked) [1-1-298] | 73 |  |  | 47 | 
Cc1cc2c(cc1NCc1ccc(C#N)cc1)C=CC(C)(CN(C)S(=O)(=O)c1ccccc1)O2 (centres unmarked) [1-2-7] | 79 |  |  | 61 | 
Cc1cc2c(cc1NCc1cccs1)C=CC(C)(CN(C)S(=O)(=O)c1ccccc1)O2 (centres unmarked) [1-2-23] | 80 |  |  | 74 | 
CC(c1cc2ccccc2s1)N(O)C(N)=O (centres unmarked) [reference compound] |  | 67% | 38% |  | 
